Results: patent publication US7700832B2 (priority 2006, dated 2010)
“Also recorded” adds a separate entry of the source. Where two headings read alike, the source gives them in different places.

Columns and labels:
Assay type in all cases: cell-based
[1] = test system: Fusarium verticillioides (FVE)
Diplodia maydis (DMA) = settings: polypeptide, standard plate assay, 6,000 spores per mL, ¼× potato dextrose broth, 28° C., 24 to 48 hours, scored with inverted microscope
[2] = test system: Fusarium graminearum (FGR); settings: for antifungal activity against FGR: polypeptide, standard plate assay, 4,000 spores per mL, ¼× potato dextrose broth, 28° C., 24 to 48 hours, scored with inverted microscope
[3] = test system: Colletotrichum graminicola (CGR); settings: polypeptide, standard plate assay, 4,000 spores per mL, ¼× Czapec-Dox V8, 28° C., 24 to 48 hours, scored with inverted microscope

Substance	antifungal activity against FVE [1]	antifungal activity against DMA (Diplodia maydis (DMA))	antifungal activity against DMA (Diplodia maydis (DMA); listed as SEQ ID NO: 1)	antifungal activity against FGR (HPLC fraction screen) ([2]; dried HPLC fractions, 4,000 spores/mL in ¼× potato dextrose broth, 27° C. for 24 hours)	antifungal activity against FGR [2]	antifungal activity against FGR ([2]; listed as SEQ ID NO: 1)	antifungal activity against CGR [3]	antifungal activity against CGR ([3]; listed as SEQ ID NO: 1)	antifungal activity against FVE (HPLC fraction screen) [1]
SEQ ID NO:1: mature antifungal polypeptide LB-09812, 33 amino acids, from Penicillium glandicola fermentation broth; also expressed in E. coli and HPLC-purified (ALHNSCSHPRCFNHAHCLTYSHCHVCSSRKRCL; PEPTIDE (1)...(33) Predicted mature LB-09812 peptide; listed as Penicillium glandicola)	exhibited antifungal activity; also recorded: display antifungal activity	display antifungal activity	exhibited antifungal activity	found to have activity	display antifungal activity	exhibited antifungal activity	display antifungal activity	exhibited antifungal activity	–
SEQ ID NO:3: mature antifungal polypeptide LB-12922 isolated from Penicillium citreonigrum fermentation broth (LSCYPSCMQNYCSHPRCFLHATCLSYSHCHVCGTRKVCL; PEPTIDE (1)...(39) Predicted mature LB-12922 peptide; listed as Penicillium citreonigrum)	display antifungal activity	display antifungal activity	–	–	display antifungal activity	–	display antifungal activity	–	found to have activity
